Columns and labels:
[1] = DRUGMATRIX: Calcium Channel Type L, Dihydropyridine radioligand binding (ligand: [3H] Nitrendipine); format: cell membranes, Rattus norvegicus, Wistar, Cerebral cortex, Membrane; conditions: Not Active = under 50% inhibition at 10 µM
Leukotriene C4 synthase = molecular target: T1, Leukotriene C4 synthase (Cavia porcellus, UniProt A6XA80); assay: biochemical; format: tissue-based, Lung;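 further: enzyme inhibition assay of leukotriene C4 synthase, using LTA4 as the substrate; in other assays of this panel Not Active means under 50% inhibition at 10 µM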
T1 sequence (A6XA80 whole entry): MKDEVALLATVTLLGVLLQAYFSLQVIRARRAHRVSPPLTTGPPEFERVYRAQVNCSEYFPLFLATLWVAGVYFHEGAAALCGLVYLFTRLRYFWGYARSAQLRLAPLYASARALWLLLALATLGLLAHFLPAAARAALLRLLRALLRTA

Melanocortin receptor 4 = Melanocortin receptor 4 (Homo sapiens, UniProt P32245); format: cell membranes, Membrane; conditions: hek293; further: in other assays of this panel Not Active means under 50% inhibition at 10 µM
Sequence of Melanocortin receptor 4 (P32245 whole entry): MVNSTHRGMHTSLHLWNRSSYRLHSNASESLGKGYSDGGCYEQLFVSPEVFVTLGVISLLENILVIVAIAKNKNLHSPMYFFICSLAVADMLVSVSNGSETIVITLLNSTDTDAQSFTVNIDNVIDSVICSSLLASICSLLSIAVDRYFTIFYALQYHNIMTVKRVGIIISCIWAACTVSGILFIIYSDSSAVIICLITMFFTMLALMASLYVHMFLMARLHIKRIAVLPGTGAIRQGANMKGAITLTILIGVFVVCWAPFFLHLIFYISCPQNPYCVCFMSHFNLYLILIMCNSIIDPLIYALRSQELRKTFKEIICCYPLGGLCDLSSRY

[2] = molecular target: T2, Muscarinic acetylcholine receptor M2 (Homo sapiens, UniProt P08172); format: cell membranes, CHO-K1, Membrane; conditions: cho-k1; further: in other assays of this panel Not Active means under 50% inhibition at 10 µM
T2 sequence (P08172 whole entry): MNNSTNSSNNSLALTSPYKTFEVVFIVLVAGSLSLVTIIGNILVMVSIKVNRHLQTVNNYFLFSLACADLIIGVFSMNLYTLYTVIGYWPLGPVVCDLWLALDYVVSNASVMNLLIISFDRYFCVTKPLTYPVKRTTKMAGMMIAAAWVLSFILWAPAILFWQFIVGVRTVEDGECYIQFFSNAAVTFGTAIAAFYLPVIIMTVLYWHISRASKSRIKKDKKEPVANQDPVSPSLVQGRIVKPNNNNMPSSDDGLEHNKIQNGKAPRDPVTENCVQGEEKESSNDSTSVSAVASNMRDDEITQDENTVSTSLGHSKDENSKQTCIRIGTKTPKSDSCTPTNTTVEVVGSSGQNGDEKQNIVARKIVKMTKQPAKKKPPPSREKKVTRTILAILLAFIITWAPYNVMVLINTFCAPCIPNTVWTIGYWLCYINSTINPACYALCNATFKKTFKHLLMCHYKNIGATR

Caspase-1 = molecular target: T3, Caspase-1 (Homo sapiens, UniProt P29466); parameters: species or system Escherichia coli;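 further: Caspase-1 enzyme inhibition assay with a peptide substrate; in other assays of this panel Not Active means under 50% inhibition at 10 µM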
T3 sequence (P29466 whole entry): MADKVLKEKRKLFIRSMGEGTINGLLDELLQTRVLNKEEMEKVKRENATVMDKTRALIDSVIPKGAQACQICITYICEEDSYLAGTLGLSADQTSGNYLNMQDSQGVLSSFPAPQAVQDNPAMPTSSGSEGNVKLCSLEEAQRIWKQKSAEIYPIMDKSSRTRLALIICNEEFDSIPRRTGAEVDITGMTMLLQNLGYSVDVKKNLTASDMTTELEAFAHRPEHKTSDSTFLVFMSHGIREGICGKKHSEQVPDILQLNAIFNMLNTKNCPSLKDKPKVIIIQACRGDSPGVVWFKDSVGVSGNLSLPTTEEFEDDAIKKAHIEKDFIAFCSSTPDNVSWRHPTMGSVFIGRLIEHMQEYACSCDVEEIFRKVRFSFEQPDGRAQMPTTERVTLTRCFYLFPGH

[3] = molecular target: Protein phosphatase 3 catalytic subunit alpha (Homo sapiens, UniProt Q08209); parameters: species or system Escherichia coli
[4] = DRUGMATRIX: Purinergic P2X radioligand binding (ligand: [3H] alpha, beta-Methylene-ATP); format: cell membranes, Oryctolagus cuniculus, New Zealand albino, Urinary bladder, Membrane; conditions: Not Active = under 50% inhibition at 10 µM
Cytochrome P450 2A6 = molecular target: T4, Cytochrome P450 2A6 (Homo sapiens, UniProt P11509); conditions: bti-tn-5b1-4; further: in other assays of this panel Not Active means under 50% inhibition at 10 µM
T4 sequence (P11509 whole entry): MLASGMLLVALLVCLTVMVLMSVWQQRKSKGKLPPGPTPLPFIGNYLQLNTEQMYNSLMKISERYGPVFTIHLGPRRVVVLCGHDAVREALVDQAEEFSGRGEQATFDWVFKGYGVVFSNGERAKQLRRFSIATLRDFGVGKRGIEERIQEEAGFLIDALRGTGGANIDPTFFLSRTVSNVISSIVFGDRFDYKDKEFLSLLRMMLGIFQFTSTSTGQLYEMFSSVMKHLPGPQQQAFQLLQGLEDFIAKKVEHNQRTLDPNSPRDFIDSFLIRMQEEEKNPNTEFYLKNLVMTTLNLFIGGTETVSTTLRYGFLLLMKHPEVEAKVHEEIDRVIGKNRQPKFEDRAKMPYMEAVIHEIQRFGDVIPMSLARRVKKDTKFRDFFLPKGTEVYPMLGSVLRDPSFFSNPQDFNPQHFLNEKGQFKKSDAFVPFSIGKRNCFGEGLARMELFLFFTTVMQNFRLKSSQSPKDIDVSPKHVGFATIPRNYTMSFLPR

CN(CCOc1ccc(C[C@H](Nc2ccccc2C(=O)c2ccccc2)C(=O)O)cc1)c1ccccn1
Not Active: IC50 [1] | Ki [1] | IC50 (Leukotriene C4 synthase) | IC50 (Melanocortin receptor 4) | IC50 [2] | IC50 (Caspase-1) | IC50 [3] | IC50 [4] | Ki [4] | IC50 (Cytochrome P450 2A6) | Ki (Cytochrome P450 2A6)

COc1cc(NC(C)CCCN)c2ncccc2c1 (centres undefined) [PRIMAQUINE]
Not Active: IC50 [1] | Ki [1] | IC50 (Leukotriene C4 synthase) | IC50 (Melanocortin receptor 4) | IC50 [2] | IC50 (Caspase-1) | IC50 [3] | IC50 [4] | Ki [4] | IC50 (Cytochrome P450 2A6) | Ki (Cytochrome P450 2A6)

c1ccc2sc(SSc3nc4ccccc4s3)nc2c1 [BENZOTHIAZYL DISULFIDE]
Not Active: IC50 [1] | Ki [1] | IC50 (Leukotriene C4 synthase) | IC50 (Melanocortin receptor 4) | IC50 [2] | IC50 (Caspase-1) | IC50 [3] | IC50 [4] | Ki [4] | IC50 (Cytochrome P450 2A6) | Ki (Cytochrome P450 2A6)

CC(C)(C#N)c1cc(Cn2cncn2)cc(C(C)(C)C#N)c1 [ANASTROZOLE]
Not Active: IC50 [1] | Ki [1] | IC50 (Leukotriene C4 synthase) | IC50 (Melanocortin receptor 4) | IC50 [2] | IC50 (Caspase-1) | IC50 [3] | IC50 [4] | Ki [4] | IC50 (Cytochrome P450 2A6) | Ki (Cytochrome P450 2A6)

CC(=O)[C@]1(O)Cc2c(O)c3c(c(O)c2[C@@H](O[C@H]2C[C@H](N)[C@H](O)[C@H](C)O2)C1)C(=O)c1ccccc1C3=O [IDARUBICIN]
Not Active: IC50 [1] | Ki [1] | IC50 (Leukotriene C4 synthase) | IC50 (Melanocortin receptor 4) | IC50 [2] | IC50 (Caspase-1) | IC50 [3] | IC50 [4] | Ki [4] | IC50 (Cytochrome P450 2A6) | Ki (Cytochrome P450 2A6)

O=C(O)c1ccccc1 [BENZOIC ACID]
Not Active: IC50 [1] | Ki [1] | IC50 (Leukotriene C4 synthase) | IC50 (Melanocortin receptor 4) | IC50 [2] | IC50 (Caspase-1) | IC50 [3] | IC50 [4] | Ki [4] | IC50 (Cytochrome P450 2A6) | Ki (Cytochrome P450 2A6)

O=C(Nc1ccc(Cl)c(Cl)c1)c1cc(Cl)cc(Cl)c1O [3,3',4',5-TETRACHLOROSALICYLANILIDE]
Not Active: IC50 [1] | Ki [1] | IC50 (Leukotriene C4 synthase) | IC50 (Melanocortin receptor 4) | IC50 [2] | IC50 (Caspase-1) | IC50 [3] | IC50 [4] | Ki [4] | IC50 (Cytochrome P450 2A6) | Ki (Cytochrome P450 2A6)

CC(C)NCC(O)COc1ccc(CC(N)=O)cc1 (centres undefined) [ATENOLOL]
Not Active: IC50 [1] | Ki [1] | IC50 (Leukotriene C4 synthase) | IC50 (Melanocortin receptor 4) | IC50 [2] | IC50 (Caspase-1) | IC50 [3] | IC50 [4] | Ki [4] | IC50 (Cytochrome P450 2A6) | Ki (Cytochrome P450 2A6)

OC[C@H]1O[C@@H]2O[C@H]3[C@H](O)[C@@H](O)[C@@H](O[C@H]4[C@H](O)[C@@H](O)[C@@H](O[C@H]5[C@H](O)[C@@H](O)[C@@H](O[C@H]6[C@H](O)[C@@H](O)[C@@H](O[C@H]7[C@H](O)[C@@H](O)[C@@H](O[C@H]1[C@H](O)[C@H]2O)O[C@@H]7CO)O[C@@H]6CO)O[C@@H]5CO)O[C@@H]4CO)O[C@@H]3CO [ALFADEX]
Not Active: IC50 [1] | Ki [1] | IC50 (Leukotriene C4 synthase) | IC50 (Melanocortin receptor 4) | IC50 [2] | IC50 (Caspase-1) | IC50 [3] | IC50 [4] | Ki [4] | IC50 (Cytochrome P450 2A6) | Ki (Cytochrome P450 2A6)

CC(=O)Nc1ccc2c(c1)Cc1ccccc1-2 [2-ACETYLAMINOFLUORENE]
Not Active: IC50 [1] | Ki [1] | IC50 (Leukotriene C4 synthase) | IC50 (Melanocortin receptor 4) | IC50 [2] | IC50 (Caspase-1) | IC50 [3] | IC50 [4] | Ki [4] | IC50 (Cytochrome P450 2A6) | Ki (Cytochrome P450 2A6)

CCN1CCN(c2cc3c(cc2F)c(=O)c(C(=O)O)cn3C2CC2)CC1 [ENROFLOXACIN]
Not Active: IC50 [1] | Ki [1] | IC50 (Leukotriene C4 synthase) | IC50 (Melanocortin receptor 4) | IC50 [2] | IC50 (Caspase-1) | IC50 [3] | IC50 [4] | Ki [4] | IC50 (Cytochrome P450 2A6) | Ki (Cytochrome P450 2A6)

O=C(O)CO [GLYCOLIC ACID]
Not Active: IC50 [1] | Ki [1] | IC50 (Leukotriene C4 synthase) | IC50 (Melanocortin receptor 4) | IC50 [2] | IC50 (Caspase-1) | IC50 [3] | IC50 [4] | Ki [4] | IC50 (Cytochrome P450 2A6) | Ki (Cytochrome P450 2A6)

CN(Cc1cc(Br)cc(Br)c1N)C1CCCCC1 [BROMHEXINE]
Not Active: IC50 [1] | Ki [1] | IC50 (Leukotriene C4 synthase) | IC50 (Melanocortin receptor 4) | IC50 [2] | IC50 (Caspase-1) | IC50 [3] | IC50 [4] | Ki [4] | IC50 (Cytochrome P450 2A6) | Ki (Cytochrome P450 2A6)

CC12CCC(CC1)C(C)(C)O2 [EUCALYPTOL]
Not Active: IC50 [1] | Ki [1] | IC50 (Leukotriene C4 synthase) | IC50 (Melanocortin receptor 4) | IC50 [2] | IC50 (Caspase-1) | IC50 [3] | IC50 [4] | Ki [4] | IC50 (Cytochrome P450 2A6) | Ki (Cytochrome P450 2A6)

— ChEMBL document CHEMBL1909046, “DrugMatrix in vitro pharmacology data”
